How the values were obtained:
Olfr746 = assay: cell-based cAMP assay (HTRF), HEK293T co-transfected with Gαolf; parameters: species or system mouse; conditions: increasing concentrations; FIG. 5E
From the text: (§1) The activity of candidate mouse receptors Olfr740 (SEQ ID NO: 1 and SEQ ID NO: 2), Olfr743 (SEQ ID NO: 5 and SEQ ID NO: 6), and Olfr746 (SEQ ID NO: 37 and SEQ ID NO: 38) to both indole and skatole malodors were confirmed in cell-based cAMP assays. In FIGS. 5A and 5B, FLAG Rho-tagged (SEQ ID 18) Olfr743 (SEQ ID NO: 6) and Olfr740 (SEQ ID NO: 2) cDNA sequences were co-transfected with Gαolf (SEQ ID NO: 21) and exposed to increasing concentrations of indole (left) or skatole (right). FIGS. 5C and 5D are repeat experiments showing similar activity of Olfr740 (SEQ ID NO: 2) with Olfr743 (SEQ ID NO: 6) with indole and skatole. In FIG. 5E, the FLAG Rho-tagged (SEQ ID 18) Olfr746 (SEQ ID NO: 38) cDNA sequence was co-transfected with Gαolf (SEQ ID NO: 21) and exposed to increasing concentrations of indole or skatole. Odorant-induced activity was detected by measuring cAMP levels in the cytosol using the HTRF approach (CisBio kit). […] Co-transfection of HEK cells with Gαolf (SEQ ID NO: 21) alone (no receptor) were used as controls for non-specific activity (control). Activity is defined as the baseline corrected HTRF ratios normalized to the highest signal in the experiment. […] All three receptors show specific dose dependent activity to the malodor compounds and, as such, validate the process for identifying receptors for these compounds. Mouse receptors Olfr740 (SEQ ID NO: 1 and SEQ ID NO: 2) and Olfr743 (SEQ ID NO: 5 and SEQ ID NO: 6) were identified from isolated olfactory neurons that responded to both indole and skatole. Mouse receptor Olfr746 (SEQ ID NO: 37 and SEQ ID NO: 38) was identified in silico by database mining using Olfr740 (SEQ ID NO: 2) and Olfr743 (SEQ ID NO: 6) as query sequences. The receptors are modified at their N-terminus with the FLAG tag and the first 20 amino acids of the bovine rhodopsin receptor (SEQ ID 18), transiently expressed in HEK 293T cells, and stimulated separately with indole and skatole to confirm their identity as bona fide indole/skatole receptors. Co-expression of the human G alpha subunit Gαolf (SEQ ID NO: 21) activates the Gs transduction pathway that leads to an internal cAMP increase upon binding to the appropriate ligand.

Olfr740 = assay: as above; parameters: species or system mouse; conditions: increasing concentrations; FIGS. 5A-5D
From the text: as §1

| SMILES | receptor activity (cAMP, HTRF) (Olfr746) | receptor activity (cAMP, HTRF) (Olfr740) |
| --- | --- | --- |
| c1ccc2[nH]ccc2c1 [indole] | dose-dependent increase of receptor activity | dose-dependent increase of receptor activity |
| Cc1c[nH]c2ccccc12 [skatole, 3-methyl indole] | dose-dependent increase of receptor activity | dose-dependent increase of receptor activity |

— patent US9914760B2, “Methods of identifying, isolating and using odorant and aroma receptors” (Firmenich SA, priority 2013, dated 2018)
